Data on three compounds can be found in ChEMBL document CHEMBL1909046, “DrugMatrix in vitro pharmacology data”.

Substance-P receptor, sequence (P25103 whole entry): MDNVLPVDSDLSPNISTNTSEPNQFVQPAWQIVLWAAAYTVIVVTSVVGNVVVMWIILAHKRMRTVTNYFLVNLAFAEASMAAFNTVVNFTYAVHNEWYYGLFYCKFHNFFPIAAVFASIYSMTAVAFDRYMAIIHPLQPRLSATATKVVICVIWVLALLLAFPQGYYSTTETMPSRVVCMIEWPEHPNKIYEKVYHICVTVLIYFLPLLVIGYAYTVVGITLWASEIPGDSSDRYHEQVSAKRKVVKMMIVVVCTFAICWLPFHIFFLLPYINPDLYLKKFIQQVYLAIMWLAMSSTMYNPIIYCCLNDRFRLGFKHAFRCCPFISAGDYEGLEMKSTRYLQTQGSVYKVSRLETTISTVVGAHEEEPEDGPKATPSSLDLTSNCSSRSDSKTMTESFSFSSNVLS
Mitogen-activated protein kinase 3, sequence (P27361 whole entry): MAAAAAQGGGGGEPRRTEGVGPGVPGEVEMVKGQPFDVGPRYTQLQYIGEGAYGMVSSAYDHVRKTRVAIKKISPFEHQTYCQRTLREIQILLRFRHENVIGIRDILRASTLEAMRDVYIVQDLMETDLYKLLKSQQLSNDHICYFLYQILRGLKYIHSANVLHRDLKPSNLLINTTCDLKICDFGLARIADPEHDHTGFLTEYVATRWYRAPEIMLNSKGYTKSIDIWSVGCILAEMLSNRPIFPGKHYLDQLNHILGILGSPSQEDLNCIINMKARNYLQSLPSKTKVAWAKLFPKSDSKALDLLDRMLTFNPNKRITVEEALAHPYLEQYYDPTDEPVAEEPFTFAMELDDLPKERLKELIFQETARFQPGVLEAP

For the first experiment, the target named is T1, Substance-K receptor (Homo sapiens, UniProt P21452). Also: in other assays of this panel Not Active means under 50% inhibition at 10 µM.
T1 sequence (P21452 whole entry): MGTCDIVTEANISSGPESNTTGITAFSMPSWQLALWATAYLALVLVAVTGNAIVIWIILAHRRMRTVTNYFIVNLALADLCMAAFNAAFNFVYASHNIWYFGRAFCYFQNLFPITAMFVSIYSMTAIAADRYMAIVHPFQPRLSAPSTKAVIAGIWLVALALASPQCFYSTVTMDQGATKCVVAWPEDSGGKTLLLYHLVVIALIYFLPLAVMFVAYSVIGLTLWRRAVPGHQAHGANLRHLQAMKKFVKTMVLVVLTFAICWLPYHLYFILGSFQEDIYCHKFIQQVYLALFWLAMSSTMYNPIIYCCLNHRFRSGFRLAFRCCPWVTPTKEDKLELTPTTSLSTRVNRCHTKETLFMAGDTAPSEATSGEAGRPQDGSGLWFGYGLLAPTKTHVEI
Test: not given
It counts as cell membranes, CHO, Membrane. The conditions noted are these: cho.
For OXALIPLATIN, the IC50 result was “Not Active” and the Ki entry is “Not Active”.
As for `c1ccc2c(c1)cc1ccc3cccc4ccc2c1c34`, the IC50 entry is “Not Active”.
`CNCCC=C1c2ccccc2CCc2ccccc21` [NORTRIPTYLINE]: the IC50 result is reported as “Not Active”.

System in a further experiment: not listed separately
Nature of the experiment: DRUGMATRIX: Nicotinic Acetylcholine radioligand binding (ligand: [125I] Epibatidine). It counts as cell membranes, Membrane. The note with it: imr-32; Not Active = under 50% inhibition at 10 µM.
Take OXALIPLATIN: the IC50 result is “Not Active” and the Ki entry was “Not Active”.
Consider `c1ccc2c(c1)cc1ccc3cccc4ccc2c1c34`, for which the IC50 result is listed as “Not Active” and the Ki result is “Not Active”.
As for `CNCCC=C1c2ccccc2CCc2ccccc21` [NORTRIPTYLINE], the IC50 result is “Not Active” and the Ki result is on record as “Not Active”.

The target in the next experiment is T2, Angiotensin-converting enzyme (Oryctolagus cuniculus, UniProt P12822).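 Also: enzymatic inhibition of angiotensin-converting enzyme measured with FAPGG as the substrate; in other assays of this panel Not Active means under 50% inhibition at 10 µM.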
T2 sequence (P12822 whole entry): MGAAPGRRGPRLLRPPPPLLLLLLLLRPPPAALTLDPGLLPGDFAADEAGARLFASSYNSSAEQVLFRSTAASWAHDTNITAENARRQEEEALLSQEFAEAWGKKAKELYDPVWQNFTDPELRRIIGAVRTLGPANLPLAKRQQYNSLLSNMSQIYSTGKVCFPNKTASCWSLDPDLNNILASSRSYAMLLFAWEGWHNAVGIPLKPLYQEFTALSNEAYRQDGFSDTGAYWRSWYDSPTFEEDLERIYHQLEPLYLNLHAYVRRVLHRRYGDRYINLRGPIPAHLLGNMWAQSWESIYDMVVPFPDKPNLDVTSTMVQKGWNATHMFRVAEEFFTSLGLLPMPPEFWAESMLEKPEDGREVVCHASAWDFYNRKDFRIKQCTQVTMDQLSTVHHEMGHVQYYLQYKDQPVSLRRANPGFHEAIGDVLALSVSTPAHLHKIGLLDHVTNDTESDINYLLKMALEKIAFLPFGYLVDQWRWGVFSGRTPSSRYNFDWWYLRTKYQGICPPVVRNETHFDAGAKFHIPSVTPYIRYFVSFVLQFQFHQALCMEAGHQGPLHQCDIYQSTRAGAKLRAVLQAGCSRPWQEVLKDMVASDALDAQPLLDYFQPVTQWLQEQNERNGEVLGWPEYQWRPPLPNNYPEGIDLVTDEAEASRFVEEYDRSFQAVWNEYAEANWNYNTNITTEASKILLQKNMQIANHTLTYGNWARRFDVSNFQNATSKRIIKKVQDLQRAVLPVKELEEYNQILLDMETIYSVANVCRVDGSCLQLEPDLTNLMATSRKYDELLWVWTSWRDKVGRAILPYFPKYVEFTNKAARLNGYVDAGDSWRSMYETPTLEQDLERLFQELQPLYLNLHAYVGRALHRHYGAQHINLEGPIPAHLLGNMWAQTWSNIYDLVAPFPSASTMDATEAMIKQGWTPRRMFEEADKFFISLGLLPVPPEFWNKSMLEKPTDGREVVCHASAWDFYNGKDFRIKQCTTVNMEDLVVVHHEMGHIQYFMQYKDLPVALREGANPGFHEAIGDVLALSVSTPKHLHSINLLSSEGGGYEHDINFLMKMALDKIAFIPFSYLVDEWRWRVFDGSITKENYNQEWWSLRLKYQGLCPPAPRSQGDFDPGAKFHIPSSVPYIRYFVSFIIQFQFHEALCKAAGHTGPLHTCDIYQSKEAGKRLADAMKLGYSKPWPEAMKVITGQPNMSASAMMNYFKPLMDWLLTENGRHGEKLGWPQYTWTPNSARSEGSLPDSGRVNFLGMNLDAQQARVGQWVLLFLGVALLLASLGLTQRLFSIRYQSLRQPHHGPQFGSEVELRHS
Nature of the experiment: biochemical.
Conditions: not given
It counts as tissue-based, Lung.
For the compound OXALIPLATIN, the IC50 result was “Not Active” and the Ki entry is given as “Not Active”.
Turning to `c1ccc2c(c1)cc1ccc3cccc4ccc2c1c34`, the IC50 entry was “Not Active”.
Regarding `CNCCC=C1c2ccccc2CCc2ccccc21` [NORTRIPTYLINE], the IC50 result was “Not Active”.

System in a further experiment: not listed separately
Nature of the experiment: DRUGMATRIX: GABAA, Muscimol, Central radioligand binding (ligand: [3H] Muscimol). It counts as cell membranes, Rattus norvegicus, Wistar, Brain, Membrane. The conditions noted are these: Not Active = under 50% inhibition at 10 µM.
OXALIPLATIN: the IC50 entry is listed as “Not Active” and the Ki entry is “Not Active”.
`c1ccc2c(c1)cc1ccc3cccc4ccc2c1c34`: the IC50 entry is on record as “Not Active” and the Ki result is “Not Active”.
In the case of `CNCCC=C1c2ccccc2CCc2ccccc21` [NORTRIPTYLINE], the IC50 entry was “Not Active” and the Ki result was “Not Active”.

A further experiment concerns the target Substance-P receptor (Homo sapiens, UniProt P25103). Also: in other assays of this panel Not Active means under 50% inhibition at 10 µM.
Test: not given
Format: cell membranes, CHO, Membrane. The note with it: cho.
In the case of OXALIPLATIN, the IC50 result is listed as “Not Active” and the Ki result was “Not Active”.
`c1ccc2c(c1)cc1ccc3cccc4ccc2c1c34`: the IC50 result was “Not Active”.
The same measure, in the same setting: the result for `CNCCC=C1c2ccccc2CCc2ccccc21` [NORTRIPTYLINE] reads “Not Active”.

A further experiment concerns the target Mitogen-activated protein kinase 3 (Homo sapiens, UniProt P27361). Nature of the experiment: DRUGMATRIX: Protein Serine/Threonine Kinase, ERK1 enzyme inhibition (substrate: Myelin Basic Protein). The arrangement: species or system Escherichia coli. The conditions noted are these: Not Active = under 50% inhibition at 10 µM.
As for OXALIPLATIN, the IC50 entry is reported as “Not Active” and the Ki result was “Not Active”.
With `c1ccc2c(c1)cc1ccc3cccc4ccc2c1c34`, the IC50 result is on record as “Not Active”.
The same measure, in the same setting: the result for `CNCCC=C1c2ccccc2CCc2ccccc21` [NORTRIPTYLINE] reads “Not Active”.

System in another experiment: not listed separately
Nature of the experiment: DRUGMATRIX: Potassium Channel [KATP] radioligand binding (ligand: [3H] Glyburide). The conditions noted are these: hit-t15; Not Active = under 50% inhibition at 10 µM. Format: cell membranes, Membrane.
For the compound OXALIPLATIN, the IC50 result is given as “Not Active” and the Ki entry was “Not Active”.
`c1ccc2c(c1)cc1ccc3cccc4ccc2c1c34`: the IC50 entry is on record as “Not Active” and the Ki result is on record as “Not Active”.
For `CNCCC=C1c2ccccc2CCc2ccccc21` [NORTRIPTYLINE], the IC50 entry is listed as “Not Active” and the Ki result is recorded as “Not Active”.

A further experiment deals with T3, Calcitonin receptor (Homo sapiens, UniProt P30988).
T3 sequence (P30988 whole entry): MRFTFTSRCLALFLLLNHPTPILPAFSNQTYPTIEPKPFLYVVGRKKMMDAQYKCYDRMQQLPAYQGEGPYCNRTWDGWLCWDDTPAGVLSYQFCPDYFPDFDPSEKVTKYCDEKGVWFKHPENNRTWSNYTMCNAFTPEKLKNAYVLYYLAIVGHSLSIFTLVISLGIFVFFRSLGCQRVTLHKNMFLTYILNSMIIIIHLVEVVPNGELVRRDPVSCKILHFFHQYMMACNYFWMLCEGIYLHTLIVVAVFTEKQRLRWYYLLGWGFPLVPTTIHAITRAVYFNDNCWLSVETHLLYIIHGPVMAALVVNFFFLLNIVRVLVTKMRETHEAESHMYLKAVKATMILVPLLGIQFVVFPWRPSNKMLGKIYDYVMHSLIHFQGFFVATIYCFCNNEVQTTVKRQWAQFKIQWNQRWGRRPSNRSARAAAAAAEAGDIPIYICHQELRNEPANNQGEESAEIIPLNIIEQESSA
Test: not given
It counts as cell membranes, Membrane. The note with it: t47d.
Take OXALIPLATIN: the IC50 entry is given as “Not Active” and the Ki result is reported as “Not Active”.
For `c1ccc2c(c1)cc1ccc3cccc4ccc2c1c34`, the IC50 entry was “Not Active”.
Consider `CNCCC=C1c2ccccc2CCc2ccccc21` [NORTRIPTYLINE], for which the IC50 result is “Not Active”.

System in a further experiment: not listed separately
Nature of the experiment: DRUGMATRIX: Interleukin IL-1 radioligand binding (ligand: [125I] interleukin 1beta). Format: cell membranes, Membrane. The conditions noted are these: nih3t3; Not Active = under 50% inhibition at 10 µM.
As to OXALIPLATIN, the IC50 result is given as “Not Active” and the Ki result is “Not Active”.
Turning to `c1ccc2c(c1)cc1ccc3cccc4ccc2c1c34`, the IC50 entry is “Not Active” and the Ki entry is given as “Not Active”.
`CNCCC=C1c2ccccc2CCc2ccccc21` [NORTRIPTYLINE]: the IC50 entry was “Not Active” and the Ki result was “Not Active”.

In the next experiment the target is Adenosine receptor A2a (Homo sapiens, UniProt P29274). In words: DRUGMATRIX: Adenosine A2A radioligand binding (ligand: […]). The conditions noted are these: hek293; Not Active = under 50% inhibition at 10 µM. Format: cell membranes, HEK293, Membrane.
Adenosine receptor A2a, sequence (P29274 whole entry): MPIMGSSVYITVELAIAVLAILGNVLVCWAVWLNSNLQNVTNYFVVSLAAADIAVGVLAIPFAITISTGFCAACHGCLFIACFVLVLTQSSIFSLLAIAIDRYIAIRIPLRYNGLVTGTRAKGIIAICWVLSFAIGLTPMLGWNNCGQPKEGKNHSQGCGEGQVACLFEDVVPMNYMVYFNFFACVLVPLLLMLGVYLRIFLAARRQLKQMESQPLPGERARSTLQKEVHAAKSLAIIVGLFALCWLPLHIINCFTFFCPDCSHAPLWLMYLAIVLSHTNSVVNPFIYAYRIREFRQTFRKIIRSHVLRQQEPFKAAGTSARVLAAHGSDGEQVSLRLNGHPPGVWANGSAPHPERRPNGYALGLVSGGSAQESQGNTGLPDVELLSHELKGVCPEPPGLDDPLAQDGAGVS
As to OXALIPLATIN, the IC50 result is listed as “Not Active” and the Ki entry is listed as “Not Active”.
Turning to `c1ccc2c(c1)cc1ccc3cccc4ccc2c1c34`, the IC50 entry is “Not Active”.
The same measure, in the same setting: the result for `CNCCC=C1c2ccccc2CCc2ccccc21` [NORTRIPTYLINE] reads “Not Active”.

For another experiment, the target named is C-C chemokine receptor type 5 (Homo sapiens, UniProt P51681). Also: in other assays of this panel Not Active means under 50% inhibition at 10 µM.
C-C chemokine receptor type 5, sequence (P51681 whole entry): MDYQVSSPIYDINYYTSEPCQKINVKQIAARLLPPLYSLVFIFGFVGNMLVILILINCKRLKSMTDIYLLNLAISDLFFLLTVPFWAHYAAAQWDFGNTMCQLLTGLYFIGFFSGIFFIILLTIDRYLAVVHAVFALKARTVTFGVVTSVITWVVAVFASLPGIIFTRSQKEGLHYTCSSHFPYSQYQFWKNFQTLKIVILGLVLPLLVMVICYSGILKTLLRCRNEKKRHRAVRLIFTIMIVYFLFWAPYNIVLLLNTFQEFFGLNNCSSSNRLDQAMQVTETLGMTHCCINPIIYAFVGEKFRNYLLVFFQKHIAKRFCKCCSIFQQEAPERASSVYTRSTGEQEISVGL
Test: not given
Format: cell membranes, Membrane. The note with it: hek293.
Regarding OXALIPLATIN, the IC50 result is “Not Active” and the Ki result was “Not Active”.
Consider `c1ccc2c(c1)cc1ccc3cccc4ccc2c1c34`, for which the IC50 entry is reported as “Not Active”.
Same read-out and setting: the result for `CNCCC=C1c2ccccc2CCc2ccccc21` [NORTRIPTYLINE] reads “Not Active”.

For the next experiment, the target named is Glycine receptor (Rattus norvegicus, UniProt P22771+P24524+P07727+P20781). Also: in other assays of this panel Not Active means under 50% inhibition at 10 µM.
Test: not given
Format: cell membranes, Wistar, Spinal cord, Membrane.
Conditions: not given
For the compound OXALIPLATIN, the IC50 entry is “Not Active” and the Ki result was “Not Active”.
With `c1ccc2c(c1)cc1ccc3cccc4ccc2c1c34`, the IC50 result is given as “Not Active”.
Same read-out and setting: the result for `CNCCC=C1c2ccccc2CCc2ccccc21` [NORTRIPTYLINE] reads “Not Active”.
